Measurements reported in patent US12551500B2, “C6′-substituted locked nucleic acid-modified cap analog and use thereof” (Hangzhou Tianlong Pharmaceutical Co., Ltd., priority 2024, dated 2026).

Assays:
[1] = target: T1, DCP2 enzyme (Schizosaccharomyces pombe, UniProt O13828); experiment: Decapping enzyme stability test; type: biochemical; settings: for Decapping rate (%) of DCP2 enzyme: 30 pmol RNA, 50 U mRNA decapping enzyme, 37° C., 45 minutes; for decapping rate lower than that of HN3002: difference to HN3002; for decapping rate lower than that of N-7413: difference to N-7413; for decapping rate lower than that of YK-CAP-001: difference to YK-CAP-001; for decapping rate lower than that of YK-CAP-002: difference to YK-CAP-002; for decapping rate lower than that of compound 14: difference to compound 14; for decapping rate lower than that of m6A: difference to m6A
T1 construct: purchased New England Biolabs
T1 sequence (O13828 1-243 limits assumed): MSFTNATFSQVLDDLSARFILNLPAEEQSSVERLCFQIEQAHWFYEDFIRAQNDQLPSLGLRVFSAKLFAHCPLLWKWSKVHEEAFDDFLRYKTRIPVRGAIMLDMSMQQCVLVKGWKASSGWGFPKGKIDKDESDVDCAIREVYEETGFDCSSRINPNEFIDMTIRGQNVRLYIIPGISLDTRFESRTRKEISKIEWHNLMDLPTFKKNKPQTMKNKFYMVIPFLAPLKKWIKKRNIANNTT
T1 sequence (Q9P805 1-127 partner): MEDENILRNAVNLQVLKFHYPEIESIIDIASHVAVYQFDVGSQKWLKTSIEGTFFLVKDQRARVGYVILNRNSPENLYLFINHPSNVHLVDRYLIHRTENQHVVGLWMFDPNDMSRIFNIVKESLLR
T1 sequence (Q10108 155-180 partner limits assumed): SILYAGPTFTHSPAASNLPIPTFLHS
Experimental: 30 pmol of RNAs purified by polyacrylamide gel electrophoresis (PAGE) was subjected to an enzymatic reaction with 50 U of mRNA decapping enzyme (New England Biolabs) and 1×MDE buffer at 37° C. for 45 minutes. The enzymatic reactants were subjected to PAGE and stained with SYBR Green II (Lonza), followed by observation of the post-electrophoresis gel image on a Typhoon FLA 7000 (GE Healthcare) instrument. The electrophoresis band intensity ratio of RNA capping to RNA decapping was counted using ImageQuant (GE Healthcare) software, and the decapping rate of the decapping enzyme was calculated (as shown in Table 6).

[2] = Characterization of lipid nanoparticles encapsulating Fluc-mRNA; type: physicochemical; settings: for Particle size: LNP (YK-009/DSPC/cholesterol/DMG-PEG2000) encapsulating Fluc-mRNA transcribed using the cap analog; for PDI: LNP encapsulating Fluc-mRNA transcribed using the cap analog; for EE: encapsulation efficiency of LNP encapsulating Fluc-mRNA transcribed using the cap analog
Experimental: Cationic lipid YK-009 (Beijing Youcare Kechuang Pharmaceutical Technology Co., Ltd.), DSPC (AVT (Shanghai) Pharmaceutical Technology Co., Ltd.), cholesterol (AVT (Shanghai) Pharmaceutical Technology Co., Ltd.), and DMG-PEG2000 were dissolved in ethanol at a molar ratio of 49:10:39.5:1.5, and the mRNA was diluted in 50 mM citrate buffer (pH=4). The ethanol lipid solution was mixed with the Fluc-mRNA aqueous solution prepared from different cap structures at a volume ratio of 1:3 using a microfluidic device at a flow rate of 10 mL/min to prepare LNPs at a weight ratio of total lipid to mRNA of approximately 15:1. The resulting liposomes were diluted to 10-fold volume with PBS, and then ultrafiltered with a 300 KDa ultrafiltration tube to remove ethanol. The volume was then fixed to a certain volume with PBS. Finally, the LNPs were filtered through a 0.2 μm sterile filter to obtain an LNP preparation encapsulating Fluc-mRNA using YK-009/DSPC/cholesterol/DMG-PEG2000 (at a molar ratio of 49:10:39.5:1.5).
The particle size and polydispersity index (PDI) were determined by dynamic light scattering using a Malvern laser particle size analyzer. 10 μL of the liposome solution was taken, diluted to 1 mL with RNase-free deionized water, and added to a sample pool. Each sample was measured in triplicate. The measurement conditions were: a scattering angle of 90° and a temperature of 25° C. The encapsulation efficiency of LNPs was determined using the Quant-iT RiboGreen RNA Quantification Kit (Thermo Fisher Scientific, UK) according to the manufacturer's instructions.

For `COC1C(OP(=O)([O-])OC[C@H]2O[C@@H](n3cnc4c(=O)[nH]c(N)nc43)C(O)C2O)[C@@H](COP(=O)(O)OP(=O)(O)OP(=O)(O)OC[C@]23O[C@@H]([n+]4cn(C)c5c(=O)[nH]c(N)nc54)C(O[C@H]2CC(=O)N(C)C)C3O)O[C@H]1n1cnc2c(N)ncnc21` (stereo partly shown) [YK-CAP-003], the “Decapping rate (%) of DCP2 enzyme” value [1] was 11.8%, the “decapping rate lower than that of HN3002” value [1] was 11.4% and the “decapping rate lower than that of N-7413” value [1] was 36.8%. For the same compound, the “decapping rate lower than that of YK-CAP-001” value [1] was 14.5%, the “decapping rate lower than that of YK-CAP-002” value [1] was 12.8% and the “decapping rate lower than that of compound 14” value [1] was 17.0%. For the same compound, the “decapping rate lower than that of m6A” value [1] was 15.7%, the Particle size [2] was 82.83 nm and the PDI [2] was 0.032. It also gave an EE [2] of 95.6%.
With `COC1C(OP(=O)([O-])OC[C@H]2O[C@@H](n3cnc4c(=O)[nH]c(N)nc43)C(O)C2O)[C@@H](COP(=O)(O)OP(=O)(O)OP(=O)(O)OC[C@]23O[C@@H]([n+]4cn(C)c5c(=O)[nH]c(N)nc54)C(O[C@H]2CC(F)F)C3O)O[C@H]1n1cnc2c(N)ncnc21` (stereo partly shown) [YK-CAP-004] the “Decapping rate (%) of DCP2 enzyme” value [1] was 10.3%, the “decapping rate lower than that of HN3002” value [1] was 12.9% and the “decapping rate lower than that of N-7413” value [1] was 38.3%. For the same compound, the “decapping rate lower than that of YK-CAP-001” value [1] was 16.0%, the “decapping rate lower than that of YK-CAP-002” value [1] was 14.3% and the “decapping rate lower than that of compound 14” value [1] was 18.5%. The “decapping rate lower than that of m6A” value [1] was 17.2%, the Particle size [2] was 89.39 nm and the PDI [2] was 0.065. It also gave an EE [2] of 93.7%.
With `COC1C(OP(=O)([O-])OC[C@H]2O[C@@H](n3cnc4c(=O)[nH]c(N)nc43)C(O)C2O)[C@@H](COP(=O)(O)OP(=O)(O)OP(=O)(O)OC[C@]23O[C@@H]([n+]4cn(C)c5c(=O)[nH]c(N)nc54)C(O[C@H]2CCS(C)(=O)=O)C3O)O[C@H]1n1cnc2c(N)ncnc21` (stereo partly shown) [YK-CAP-005] the “Decapping rate (%) of DCP2 enzyme” value [1] was 12.8%, the “decapping rate lower than that of HN3002” value [1] was 10.4% and the “decapping rate lower than that of N-7413” value [1] was 35.8%. For the same compound, the “decapping rate lower than that of YK-CAP-001” value [1] was 13.5%, the “decapping rate lower than that of YK-CAP-002” value [1] was 11.8% and the “decapping rate lower than that of compound 14” value [1] was 16.0%. The “decapping rate lower than that of m6A” value [1] was 14.7%, the Particle size [2] was 87.01 nm and the PDI [2] was 0.064. It also gave an EE [2] of 94.5%.
In the case of `COC1C(OP(=O)([O-])OC[C@H]2O[C@@H](n3cnc4c(=O)[nH]c(N)nc43)C(O)C2O)[C@@H](COP(=O)(O)OP(=O)(O)OP(=O)(O)OC[C@]23O[C@@H]([n+]4cn(C)c5c(=O)[nH]c(N)nc54)C(O[C@H]2CCS(=O)(=O)N(C)C)C3O)O[C@H]1n1cnc2c(N)ncnc21` (stereo partly shown) [YK-CAP-006], the “Decapping rate (%) of DCP2 enzyme” value [1] is reported as 11.2%, the “decapping rate lower than that of HN3002” value [1] is reported as 12.0% and the “decapping rate lower than that of N-7413” value [1] is reported as 37.4%. The “decapping rate lower than that of YK-CAP-001” value [1] was 15.1%, the “decapping rate lower than that of YK-CAP-002” value [1] was 13.4% and the “decapping rate lower than that of compound 14” value [1] was 17.6%. The “decapping rate lower than that of m6A” value [1] was 16.3%, the Particle size [2] was 96.64 nm and the PDI [2] was 0.029. It also gave an EE [2] of 96.3%.
